Measurements from patent publication US20100120690A1, “Polypeptides Having Antimicrobial Activity and Polynucleotides Encoding Same” (Novozymes Adenium Biotech A/S, priority 2005, published 2010).

Test system: Staphylococcus carnosus ATCC51365
Assay: Yeast screening assay: radial diffusion assay of yeast supernatants
Format: cell-based
Parameters: key: An activity of 3 is better than Plectasin; An activity of 2 corresponds to the activity of Plectasin; 1 is worse than Plectasin
Conditions: yeast supernatant, clearing zone in radial diffusion assay
Experimental: A range of antimicrobial polypeptides, which are variants of SEQ ID NO: 1 (Plectasin), were tested for antimicrobial activity by expressing them in S. cerevisae and screening the supernatant of the yeast transformants for antimicrobial activity against Staphylococcus carnosus ATCC51365.
Radial Diffusion Assay was carried out as described in Methods in Molecular Biology, Vol. 78, Antibacterial peptide protocol, William M. Shafer, Human Press.
200-300 yeast transformant colonies were plated on 14 cm round plates containing 25 mL SC growth medium supplemented with 1.5% galactose, 0.5% glucose and 1.5% agarose. Plates were incubated for three hours at room temperature, overlaid with 25 mL of the same growth medium and allowed to grow for three days at 30° C. Then the plates were overlaid with 25 mL of LB growth medium containing 1.5% agarose and 10^5 cells of the indicator strain Staphylococcus carnosus and incubated at 30° C. overnight to allow growth of the bacterial cells. Next day, the plates were stained with 1.5 mM MTT to facilitate visualization of the clearing zones.
Yeast colonies creating clearing zones were transferred to microtiter plates containing 200 micro-L of SC growth medium supplemented with 2% glucose and ampicillin (100 mg/L). Such plates designated “master plates” were incubated for 2 days at 30° C. with shaking at 450 rpm to allow yeast growth.
10 micro-L SC growth medium from each well of the master plates were transferred to new microtiter plates containing 200 micro-L SC growth medium with 1.5% galactose and 0.5% glucose. These plates were called daughter plates and were incubated for 3 days at 30° C. under 450 rpm shaking to allow yeast growth and peptide synthesis.
Finally a Radial Diffusion Assay (RDA) was performed following the protocol described in Methods in Molecular Biology to analyse and quantify the antimicrobial activity of the yeast supernatants against S. carnosus.
Briefly, 30 mL of minimal underlay medium containing 1% agarose and 5×10^5 cfu/mL of S. carnosus was poured in an omnitray plate (Nunc, 242811). A Nunc TSP plate (#445497) was inserted immediately on the plate to allow a 96 well pattern formation. Once the media had solidified, the TSP plate was removed and 10 micro-L of yeast supernatant samples were applied on the holes. Plates were incubated 3 hours at 37° C. and overlaid with 15 mL of LB agar growth medium. Finally, plates were incubated overnight at 37° C. and coloured with 1.5 mM MTT to visualize the clearing zones.
Inspection and measurements of the clearing zones was performed on the plates. The corresponding yeast clones resulting in clearing zones of similar or increased size than the clones encoding for wild type plectasin were picked from the master plates and transferred to agar plates containing SC growth medium with 2% glucose and ampicillin (100 mg/L). Such plates were incubated for further 2 days at 30° C. to allow yeast growth. Subsequently, colony PCR was performed followed by sequence analysis to identify amino acid changes in the plectasin sequence.
An activity of 2 corresponds to the activity of Plectasin. An activity of 3 is better than Plectasin, and 1 is worse than Plectasin.

| Sequence | Activity (antimicrobial activity relative to the activity of plectasin) |
| --- | --- |
| GFGCNGPWDEDDMQCHNHCKSIKGYKGGYCAKGGFVCRCY [Mutation K38R] | 2 |
| GFGCNGPWDEDDMQCHNHCKSIKGYKGGYCAKGGHVCKCY [Mutation F35H] | 2 |
| GFGCNGPWDEDDMQCHNHCKSIKGYKGGYCAKGGIVCKCY [Mutation F35I] | 2 |
| GFGCNGPWDEDDMQCHNHCKSIKGYKGGYCAKGGLVCKCY [Mutation F35L] | 3 |
| GFGCNGPWDEDDMQCHNHCKSIKGYKGGYCAKGGMVCKCY [Mutation F35M] | 2 |
| GFGCNGPWDEDDMQCHNHCKSIKGYKGGYCAKGGVVCKCY [Mutation F35V] | 2 |
| GFGCNGPWDEDDMQCHNHCKSIKGYKGGYCAKGGWVCKCY [Mutation F35W] | 2 |
| GFGCNGPWDEDDMQCHNHCKSIKGYKGGYCAKGHFVCKCY [Mutation G34H] | 2 |
| GFGCNGPWDEDDMQCHNHCKSIKGYKGGYCAKGKFVCKCY [Mutation G34K] | 3 |
| GFGCNGPWDEDDMQCHNHCKSIKGYKGGYCAKGRFVCKCY [Mutation G34R] | 3 |
| GFGCNGPWDEDDMQCHNHCKSIKGYKGGYCAKGWFVCKCY [Mutation G34W] | 2 |
| GFGCNGPWDEDDMQCHNHCKSIKGYKGGYCAKKGFVCKCY [Mutation G33K] | 3 |
| GFGCNGPWDEDDMQCHNHCKSIKGYKGGYCAKNGFVCKCY [Mutation G33N] | 2 |
| GFGCNGPWDEDDMQCHNHCKSIKGYKGGYCAKQGFVCKCY [Mutation G33Q] | 3 |
| GFGCNGPWDEDDMQCHNHCKSIKGYKGGYCAKRGFVCKCY [Mutation G33R] | 3 |
| GFGCNGPWDEDDMQCHNHCKSIKGYKGGYCAKSGFVCKCY [Mutation G33S] | 2 |
| GFGCNGPWDEDDMQCHNHCKSIKGYKGGYCAKTGFVCKCY [Mutation G33T] | 2 |
| GFGCNGPWDEDDMQCHNHCKSIKGYKGGYCARGGFVCKCY [Mutation K32R] | 2 |
| GFGCNGPWDEDDMQCHNHCKSIKGYKGGYCARGKFVCKCY [K32R + G34K] | 2 |
| GFGCNGPWDEDDMQCHNHCKSIKGYKGGYCATGGFVCKCY [Mutation K32T] | 2 |

| Sequence | Activity (antimicrobial activity relative to the activity of plectasin) |
| --- | --- |
| GFGCNGPWDEDDMQCHNHCKSIKGYKGGYCEKGGFVCKCY [Mutation A31E] | 2 |
| GFGCNGPWDEDDMQCHNHCKSIKGYKGGYCHKGGFVCKCY [Mutation A31H] | 2 |
| GFGCNGPWDEDDMQCHNHCKSIKGYKGGYCIKGGFVCKCY [Mutation A31I] | 2 |
| GFGCNGPWDEDDMQCHNHCKSIKGYKGGYCKKGGFVCKCY [Mutation A31K] | 3 |
| GFGCNGPWDEDDMQCHNHCKSIKGYKGGYCQKGGFVCKCY [Mutation A31Q] | 3 |
| GFGCNGPWDEDDMQCHNHCKSIKGYKGGYCRKGGFVCKCY [Mutation A31R] | 2 |
| GFGCNGPWDEDDMQCHNHCKSIKGYKGGYCSKGGFVCKCY [Mutation A31S] | 2 |
| GFGCNGPWDEDDMQCHNHCKSIKGYKGGYCTKGGFVCKCY [Mutation A31T] | 3 |
| GFGCNGPWDEDDMQCHNHCKSIKGYKGGYCVKGGFVCKCY [Mutation A31V] | 2 |
| GFGCNGPWDEDDMQCHNHCKSIKGYKGGYCYKGGFVCKCY [Mutation A31Y] | 3 |
| GFGCNGPWDEDDMQCHNHCKSIKGYTGGYCAKGGFVCKCY [Mutation K26T] | 2 |
| GFGCNGPWDEDDMQCHNHCKSIKHYKGGYCAKGGFVCKCY [Mutation G24H] | 3 |
| GFGCNGPWDEDDMQCHNHCKSIKIYKGGYCAKGGFVCKCY [Mutation G24I] | 2 |
| GFGCNGPWDEDDMQCHNHCKSIKKYKGGYCAKGGFVCKCY [Mutation G24K] | 3 |
| GFGCNGPWDEDDMQCHNHCKSIKNYKGGYCAKGGFVCKCY [Mutation G24N] | 3 |
| GFGCNGPWDEDDMQCHNHCKSIKPYKGGYCAKGGFVCKCY [Mutation G24P] | 2 |
| GFGCNGPWDEDDMQCHNHCKSIKQYKGGYCAKGGFVCKCY [Mutation G24Q] | 2 |
| GFGCNGPWDEDDMQCHNHCKSIKSYKGGYCAKGGFVCKCY [Mutation G24S] | 2 |
| GFGCNGPWDEDDMQCHNHCKSIKTYKGGYCAKGGFVCKCY [Mutation G24T] | 2 |
| GFGCNGPWDEDDMQCHNHCKSIKYYKGGYCAKGGFVCKCY [Mutation G24Y] | 2 |

| Sequence | Activity (antimicrobial activity relative to the activity of plectasin) |
| --- | --- |
| GFGCNGPWDEDDMQCHNHCKSLKGYKGGYCAKGGFVCKCY [Mutation I22L] | 3 |
| GFGCNGPWDEDDMQCHNHCKSMKGYKGGYCAKGGFVCKCY [Mutation I22M] | 2 |
| GFGCNGPWDEDDMQCHNHCKSTKGYKGGYCAKGGFVCKCY [Mutation I22T] | 2 |
| GFGCNGPWDEDDMQCHNHCKSVKGYKGGYCAKGGFVCKCY [Mutation I22V] | 3 |
| GFGCNGPWDEDDMQCHNHCKSWKGYKGGYCAKGGFVCKCY [Mutation I22W] | 2 |
| GFGCNGPWDEDDMQCHNHCQSIKGYKGGYCAKGGFVCKCY [Mutation K20Q] | 2 |
| GFGCNGPWDEDDMQCHNLCKSIKGYKGGYCAKGGFVCKCY [Mutation H18L] | 3 |
| GFGCNGPWDEDDMQCHNQCKSIKGYKGGYCAKGGFVCKCY [Mutation H18Q] | 2 |
| GFGCNGPWDEDDMQCHNTCKSIKGYKGGYCAKGGFVCKCY [Mutation H18T] | 2 |
| GFGCNGPWDEDDMQCHNVCKSIKGYKGGYCAKGGFVCKCY [Mutation H18V] | 2 |
| GFGCNGPWDEDDMSCHNHCKSIKGYKGGYCAKGGFVCRCY [Q14S + K38R] | 2 |
| GFGCNGPWDEDDMTCHNHCKSIKGYKGGYCAKGGFVCKCY [Mutation Q14T] | 2 |
| GFGCNGPWDEDDMVCHNHCKSIKGYKGGYCAKGGFVCKCY [Mutation Q14V] | 2 |
| GFGCNGPWDEDDMWCHNHCKSIKGYKGGYCAKGGFVCKCY [Mutation Q14W] | 2 |
| GFGCNGPWDEDDMYCHNHCKSIKGYKGGYCAKGGFVCKCY [Mutation Q14Y] | 3 |
| GFGCNGPWDEDDRQCHNHCKSIKGYKGGFCAKGGFVCKCY [M13R + Y29F] | 2 |
| GFGCNGPWDEDDVQCHNHCKSIKGYKGGYCAKGGFVCKCY [Mutation M13V] | 3 |
| GFGCNGPWDEDDYQCHNHCKSIKGYKGGYCAKGGFVCKCY [Mutation M13Y] | 2 |
| GFGCNGPWDEDPMQCHNHCKSIKGYKGGYCAKGGFVCKCY [Mutation D12P] | 2 |
| GFGCNGPWDEFDMQCHNHCKSIKGYKGGYCAKGGFVCKCY [Mutation D11F] | 3 |
